Experimental data reported in patent US12600732B2, “Bifunctional compounds for degrading BTK via ubiquitin proteosome pathway” (NURIX THERAPEUTICS, INC., priority 2019, dated 2026).
Like-named read-outs stand apart in the source and are kept apart here.

What was measured:
[1] = tested on: B cell receptor (BCR) signaling; assay: B cell activation assay (flow cytometry), mouse B cells; type: cell-based; settings: treatment 4 h, IgM stimulation 18 h
How it was run: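 Compound was present throughout BCR stimulation. Live single lymphocytes were gated into CD20+CD3− B cells and CD3+CD20− T cells by flow cytometry. Geometric MFI of CD86 and CD69 was measured per population, with unstimulated samples defining baseline activation.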

BTK [2] = molecular target: T1, BTK (Mus musculus, UniProt P35991); assay: In vivo degradation of BTK in mouse PD experiments with oral dosing
T1 construct: from tissue; host or cells: mouse blood B cells / splenocytes (CD-1 or BALB/c)
How it was run: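 CD-1 or BALB/c mice dosed by oral gavage, screens at 90 mg/kg for 6 h, later at lower doses/longer times. Blood or splenocyte BTK measured by intracellular flow cytometry (or HTRF); % degradation from B-cell minus T-cell BTK geometric MFI, relative to vehicle.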

BTK [3] = molecular target: BTK (Homo sapiens, UniProt Q06187); assay: Cellular BTK degradation assay (Total BTK HTRF) in TMD8 cells; type: cell-based; design: endogenous in cells; host or cells: TMD8; settings: treatment time 24 h
Description: Cellular BTK Degradation Assay
In Vitro Cellular Screening to Determine Potency as Measured by DC50 Values after Four Hour Incubation
BTK levels were determined using Cisbio Total-BTK HTRF (Homologous Time-Resolved Fluorescence) kit (63ADK064PEG) according to the manufacturer's protocol. Briefly, cells were incubated in 1× supplied lysis buffer for 30 minutes. In an opaque white low volume 96-well plate (Cisbio, 66PL96005), cell lysate was combined with two different specific BTK antibodies, one conjugated with Eu^3+-Cryptate FRET donor and one conjugated with d2 FRET acceptor. Assay controls include wells containing cell lysate with only the Eu^3+-Cryptate FRET donor antibody and wells containing both HTRF antibodies and lysis buffer without cells or control lysate provided by Cisbio. HTRF ratio was calculated as (acceptor signal at 665 nm/donor signal at 620 nm)×10^4. Background HTRF levels were determined from the control well containing the donor, but no acceptor, antibody. Background HTRF levels were subtracted from all samples. Readouts were reported as HTRF levels relative to HTRF levels of DMSO-treated cells. Four-parameter non-linear regressions were performed in GraphPad Prism 7.02 to obtain DC50 values.
Cellular BTK degradation was measured as above for four hours in TMD8 cells for two diastereomers of compound 130. DC50 and EC50 values are the concentration at which the response is halfway between the top and bottom of the fitted non-linear regression curve.
The present example evaluates whether potency of BTK CTMs shifts with longer timepoints. DC50 values are typically calculated with a 4-hour timepoint.

BTK C481S = BTK C481S (Homo sapiens, UniProt Q06187, C481S); assay: BTK degradation (Total BTK HTRF) in TMD8 cells expressing BTK-C481S; type: cell-based; design: endogenous in cells; host or cells: TMD8 BTK-C481S (clone2C3), Cas9 RNP knock-in; settings: TMD8 BTK-C481S (clone2C3) cells, treatment time 4 h
How it was run: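 TMD8 cells expressing BTK-C481S were treated for four hours, then lysed for 30 min. Total BTK was measured by HTRF with Eu-cryptate donor and d2 acceptor antibodies as the 665/620 nm ratio, minus donor-only background. DC50 came from four-parameter fits of signal relative to DMSO-treated cells.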

BTK [4] = molecular target: T1, BTK; assay: Mouse DRF PD, BTK remaining in B cells; type: in vivo; settings: blood, 24 h after previous dose
Description: A method of determining the pharmacodynamic profile of BTK degraders was performed by dosing either CD-1 or BALB/c mice with CTM. The CTM was prepared in a suitable formulation and was administered via oral gavage (PO) at a suitable dose level and frequency as informed by prior pharmacokinetic and tolerability studies. Following administration of CTM, BTK levels in blood or splenocytes are measured using flow cytometry or HTRF. For assessment of BTK levels via flow cytometry, either whole blood or splenocytes were first treated with ACK RBC lysis buffer to facilitate lysing of red blood cells. Remaining cells were then stained with fluorophore-conjugated antibodies against CD45, TCR beta and CD45R (B220). Cell pellets were washed with 1×PBS, fixed, and permeabilized for twenty-four hours with Foxp3/Transcription Factor Fixation/Permeabilization Kit. Cells were then stained intracellularly with unconjugated BTK antibody and detected with a fluorophore-conjugated secondary antibody. Stained cells were run on an Attune N×T Acoustic Focusing Flow Cytometer (Thermo-Fisher A29004), and data was analyzed using FlowJo (v10.5.3) and GraphPad Prism (v7.00) software. Lymphocytes were gated for B cells defined as CD45+ TCR beta−B220+ and T cells as CD45+ TCR beta+B220−. The BTK geometric mean fluorescence intensity (MFI) was calculated for B and T cells. Percent BTK degradation for each compound-treated sample was calculated using the equation described below: % Degradation=100*(Treated sample B cell BTK MFI-treated sample T cell BTK MFI)/Vehicle B cell BTK MFI-Vehicle T cell BTK MFI)
This example evaluates potency and tolerability of BTK CTMs following multiple, consecutive days of dosing and evaluates potency of compounds for BTK degradation.
The data in the table below is from a study in which animals were dosed daily with the designated oral dose. Analysis for BTK levels was performed twenty-four hours following the previous dose.

[5] = Compound plasma exposure in cyno DRF study; type: in vivo; settings: cynomolgus monkey, po
Description: This example evaluates compound plasma concentration which results in in vivo BTK and/or Aiolos degradation in cyno. The data in the table below is from a study in which animals were dosed daily with the designated oral dose. Analysis for compound concentration in plasma was performed twenty-four hours following the previous dose.

[6] = oral dose 30 mg/kg, 24 h, blood, flow cytometry
[7] = oral dose 30 mg/kg, 24 h, splenocytes, HTRF
[8] = 30 mg/kg PO daily, 1 day of dosing
[9] = 30 mg/kg PO daily, 14 days of dosing
[10] = 100 mg/kg PO daily, 1 day of dosing
[11] = 100 mg/kg PO daily, 14 days of dosing
[12] = 300 mg/kg PO daily, 1 day of dosing
[13] = 300 mg/kg PO daily, 14 days of dosing
[14] = oral dose 10 mg/kg, 24 h, splenocytes, HTRF
[15] = 10 mg/kg, 10 mg/kg PO, 1 day of dosing
[16] = 10 mg/kg, 10 mg/kg PO, 14 days of dosing
[17] = 30 mg/kg, 30 mg/kg PO, 1 day of dosing
[18] = 30 mg/kg, 30 mg/kg PO, 14 days of dosing
[19] = 100 mg/kg, 100 mg/kg PO, 1 day of dosing
[20] = 100 mg/kg, 100 mg/kg PO, 14 days of dosing

Row | SMILES | EC50 ([1]; read-out: CD69 EC50) | EC50 ([1]; read-out: CD86 EC50) | % BTK Remaining (BTK [2]; [6]) | % BTK Remaining (BTK [2]; [7]) | DC50 (BTK [3]) | DC50 (BTK C481S) | % BTK Remaining in B cells (BTK [4]; [8]) | % BTK Remaining in B cells (BTK [4]; [9]) | % BTK Remaining in B cells (BTK [4]; [10]) | % BTK Remaining in B cells (BTK [4]; [11]) | % BTK Remaining in B cells (BTK [4]; [12]) | % BTK Remaining in B cells (BTK [4]; [13]) | Cmax [5, 15] | AUC [5, 16] | Cmax [5, 16] | Cmax [5, 17] | AUC [5, 18] | Cmax [5, 18] | AUC [5, 19] | Cmax [5, 20] | other results
1 | CN1CCN([C@@H]2CCCN(c3cnc(C(N)=O)c(Nc4ccc(C5CCN(C[C@H]6CCN(c7ccc8c(c7)C(=O)N(C7CCC(=O)NC7=O)C8=O)C6)CC5)cc4)n3)C2)C1=O (some centres unmarked) [Compound 44] | 0.2 nM | 0.4 nM | – | 23% | 0.36 nM | 1.8 nM | 16% | 16% | 10% | 11% | 8% | 10% | 10.6 nM | 0.467 µM·h | 34 nM | 18 nM | 0.794 µM·h | 55.5 nM | 0.294 µM·h | 94.2 nM | % BTK Remaining (BTK [2]; dose 1(IV) mg/kg, 24 h, splenocytes, HTRF): 58%; % BTK Remaining (BTK [2]; oral dose 1 mg/kg, 6 h, splenocytes, HTRF): 58%; % BTK Remaining (BTK [2]; oral dose 3 mg/kg, 6 h, splenocytes, HTRF): 32%; % BTK Remaining (BTK [2]; oral dose 10 mg/kg, 6 h, splenocytes, HTRF): 11%; % BTK Remaining (BTK [2]; [14]): 34%; % BTK Remaining (BTK [2]; oral dose 30 mg/kg, 6 h, splenocytes, HTRF): 4%; % BTK Remaining (BTK [2]; oral dose 90 mg/kg, 6 h, splenocytes, HTRF): 4%
2 | NC(=O)c1ncc(N2CCCCC2)nc1Nc1ccc(C2CCN(C[C@@H]3CCN(c4ccc5c(c4)C(=O)N(C4CCC(=O)NC4=O)C5=O)C3)CC2)cc1 (some centres unmarked) [Compound 149] | – | – | 11% | 8% | 2.3 nM | 14.4 nM | 11% | 8% | 10% | 5% | 6% | 2% | 42 nM | 0.763 µM·h | 49 nM | 51 nM | 1.48 µM·h | 88 nM | 0.714 µM·h | 159 nM | % BTK Remaining (BTK [2]; oral dose 10 mg/kg, 24 h, blood, flow cytometry): 27%; % BTK Remaining (BTK [2]; [14]): 21%; % BTK Remaining (BTK [2]; oral dose 90 mg/kg, 24 h, blood, flow cytometry): 1%; % BTK Remaining (BTK [2]; oral dose 90 mg/kg, 24 h, splenocytes, HTRF): 1%
3 | CN1CCN([C@@H]2CCCN(c3cnc(C(N)=O)c(Nc4ccc(C5CCN(CC6CCN(c7ccc8c(=O)n(C9CCC(=O)NC9=O)ccc8c7)CC6)CC5)cc4)n3)C2)C1=O (some centres unmarked) [Compound 72] | 0.07 nM | 0.2 nM | – | 20% | 0.21 nM | 2 nM | – | – | – | – | – | – | – | – | – | – | – | – | – | – | –

More lines, main results first:

Row | EC50 ([1]; read-out: CD69 EC50) | EC50 ([1]; read-out: CD86 EC50) | % BTK Remaining (BTK [2]; [6]) | % BTK Remaining (BTK [2]; [7]) | DC50 (BTK [3]) | DC50 (BTK C481S) | % BTK Remaining in B cells (BTK [4]; [8]) | % BTK Remaining in B cells (BTK [4]; [9]) | % BTK Remaining in B cells (BTK [4]; [10]) | % BTK Remaining in B cells (BTK [4]; [11]) | % BTK Remaining in B cells (BTK [4]; [12]) | % BTK Remaining in B cells (BTK [4]; [13]) | Cmax [5, 15] | AUC [5, 16] | Cmax [5, 16] | Cmax [5, 17] | AUC [5, 18] | Cmax [5, 18] | AUC [5, 19] | Cmax [5, 20] | SMILES | other results
4 | 0.5 nM | 0.9 nM | 28% | 33% | 1 nM | 4.1 nM | – | – | – | – | – | – | – | – | – | – | – | – | – | – | CN1CCN([C@@H]2CCCN(c3cnc(C(N)=O)c(Nc4ccc(C5CCN(CC6CCN(c7ccc(-c8nn(C9CCC(=O)NC9=O)c(=O)n8C)cc7)CC6)CC5)cc4)n3)C2)C1=O (some centres unmarked) [Compound 121] | % BTK Remaining (BTK [2]; oral dose 0.3 mg/kg, 24 h, blood, flow cytometry): 102%; % BTK Remaining (BTK [2]; oral dose 3 mg/kg, 24 h, blood, flow cytometry): 68%
5 | – | – | 5% | – | – | 1.8 nM | 11% | 6% | 3% | 2% | 2% | <1% | 20 nM | 0.387 µM·h | 28 nM | 55 nM | 0.844 µM·h | 54 nM | 1.4 µM·h | 177 nM | CN1CCN([C@H]2CCCN(c3cnc(C(N)=O)c(Nc4ccc(C5CCN(CC6CCN(c7ccc(C(=O)NC8CCC(=O)NC8=O)nc7)CC6)CC5)cc4)n3)C2)C1=O (some centres unmarked) [Compound 130] | –
